Measurements published in patent publication US9255110B2 (Hoffmann-La Roche Inc., priority 2010, dated 2016).
Structures can show the parent of a compound that is named as a salt.

Target: IRAK-4 (Homo sapiens (Human), UniProt Q9NWZ3)
Assay: In vitro IRAK-4 kinase assay
Format: biochemical
Conditions: purified recombinant IRAK-4, 50 uM ATP, 33P peptide phosphorylation
Method: Purified recombinant IRAK-4 protein was incubated with 250 uM synthetic peptide ([…]) in 30 ul of kinase buffer including (20 mM MOPS pH7.2, 25 mM beta glycerol phosphate, 5 mM EGTA, 1 mM sodium orthovanadate, 1 mM DTT, 50 uM ATP, 20 mM MgCl2, 10 uCi γ-^33P, 0.1% BSA) for the indicated time. For purified recombinant IRAK-1 protein kinase assay, 50 uM ATP was used. A 25 ul aliquot of the reaction mixture was transferred on to p81 phosphocellulose squares (Upstate Biotechnology, Lake Placid, N.Y.). The assay squares were washed three times with 0.75% phosphoric acid and once with acetone. Enzyme activity was measured by determining the bound radioactivity by liquid scintillation counting.

IRAK-4, sequence (Q9NWZ3 whole entry, species assumed): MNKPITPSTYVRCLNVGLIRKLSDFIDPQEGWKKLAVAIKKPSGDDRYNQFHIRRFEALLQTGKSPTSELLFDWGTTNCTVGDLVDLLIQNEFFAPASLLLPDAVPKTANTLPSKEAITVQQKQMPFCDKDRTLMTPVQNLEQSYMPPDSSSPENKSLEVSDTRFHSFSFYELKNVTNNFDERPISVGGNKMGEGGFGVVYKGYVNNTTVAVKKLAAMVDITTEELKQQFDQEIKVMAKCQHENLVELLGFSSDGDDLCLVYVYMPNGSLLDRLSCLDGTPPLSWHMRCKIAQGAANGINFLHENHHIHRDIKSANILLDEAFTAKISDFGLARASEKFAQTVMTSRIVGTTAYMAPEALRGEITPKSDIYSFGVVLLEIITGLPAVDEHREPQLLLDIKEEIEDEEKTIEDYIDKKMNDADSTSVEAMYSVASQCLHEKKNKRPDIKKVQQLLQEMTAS

Row | SMILES | IC50 [nM]
1 | COc1cc2ncccc2cc1NC(=O)c1csc2cnc(N(C)C(C)C)nc12 [Example 85, 2-(Isopropyl-methyl-amino)-thieno[3,2-d]pyrimidine-7-carboxylic acid (7-methoxy-quinolin-6-yl)-amide] | 432
2 | COc1ccc(Cl)cc1NC(=O)c1csc2cnc(N(C)CCN)nc12 [Example 86, 2-[(2-Amino-ethyl)-methyl-amino]-thieno[3,2-d]pyrimidine-7-carboxylic acid (5-chloro-2-methoxy-phenyl)-amide] | 436
3 | O=C(Nc1cc(Cl)ccc1OCCCCO)c1cnn2cccnc12 [Example 87, Pyrazolo[1,5-alpha]pyrimidine-3-carboxylic acid [5-chloro-2-(4-hydroxy-butoxy)-phenyl]-amide] | 437
4 | O=C(Nc1cc2cccnc2cc1OC1CCNC1)c1csc2cncnc12 (stereo not drawn) [Example 88, Thieno[3,2-d]pyrimidine-7-carboxylic acid [7-(pyrrolidin-3-yloxy)-quinolin-6-yl]-amide hydrochloride] | 455
5 | COc1cc(C(=O)Nc2ccccc2)ccc1NC(=O)c1cnn2cccnc12 [Example 89, Pyrazolo[1,5-alpha]pyrimidine-3-carboxylic acid (2-methoxy-4-phenylcarbamoyl-phenyl)-amide] | 455
6 | O=C(Nc1cc(Cl)ccc1N1CCCC(O)C1)c1cnn2cccnc12 (stereo not drawn) [Example 91, Pyrazolo[1,5-alpha]pyrimidine-3-carboxylic acid [5-chloro-2-(3-hydroxy-piperidin-1-yl)-phenyl]-amide] | 474
7 | O=C(Nc1cc(Cl)ccc1OC1CCNCC1)c1cnn2cccnc12 [Example 92, Pyrazolo[1,5-alpha]pyrimidine-3-carboxylic acid [5-chloro-2-(piperidin-4-yloxy)-phenyl]-amide hydrochloride] | 476
8 | O=C(Nc1cc(Cl)ccc1-c1ccc(O)cc1)c1cnn2cccnc12 [Example 94, Pyrazolo[1,5-alpha]pyrimidine-3-carboxylic acid (4-chloro-4′-hydroxy-biphenyl-2-yl)-amide] | 477
9 | O=C(Nc1cc(Cl)ccc1N1CCC(O)C1)c1cnn2cccnc12 (stereo not drawn) [Example 95, Pyrazolo[1,5-alpha]pyrimidine-3-carboxylic acid [5-chloro-2-(3-hydroxy-pyrrolidin-1-yl)-phenyl]-amide] | 493
10 | O=C(Nc1cc(Cl)ccc1OCCC(O)CO)c1cnn2cccnc12 (stereo not drawn) [Example 96, Pyrazolo[1,5-alpha]pyrimidine-3-carboxylic acid [5-chloro-2-(3,4-dihydroxy-butoxy)-phenyl]-amide] | 506
11 | CN1CCN(c2ccc(Cl)cc2NC(=O)c2cnn3cccnc23)CC1 [Example 97, Pyrazolo[1,5-alpha]pyrimidine-3-carboxylic acid [5-chloro-2-(4-methyl-piperazin-1-yl)-phenyl]-amide] | 512
12 | O=C(Nc1cc(Cl)ccc1OCc1cnco1)c1cnn2cccnc12 [Example 98, Pyrazolo[1,5-alpha]pyrimidine-3-carboxylic acid [5-chloro-2-(oxazol-5-ylmethoxy)-phenyl]-amide] | 516
13 | O=C(Nc1cc(Cl)ccc1N1CCOCC1)c1cnn2cccnc12 [Example 99, Pyrazolo[1,5-alpha]pyrimidine-3-carboxylic acid (5-chloro-2-morpholin-4-yl-phenyl)-amide] | 523
14 | O=C(Nc1cc(Cl)ccc1-c1ccccc1)c1cnn2cccnc12 [Example 100, Pyrazolo[1,5-alpha]pyrimidine-3-carboxylic acid (4-chloro-biphenyl-2-yl)-amide] | 534
15 | NCC1CCN(c2ccc(Cl)cc2NC(=O)c2cnn3cccnc23)C1 (stereo not drawn) [Example 101, Pyrazolo[1,5-alpha]pyrimidine-3-carboxylic acid [2-(3-aminomethyl-pyrrolidin-1-yl)-5-chloro-phenyl]-amide] | 564
16 | COc1cc2cc[nH]c2cc1NC(=O)c1csc2cncnc12 [Example 102, Thieno[3,2-d]pyrimidine-7-carboxylic acid (5-methoxy-1H-indol-6-yl)-amide] | 596
17 | O=C(Nc1cc(Cl)ccc1OC1CCCC(O)C1)c1cnn2cccnc12 (stereo not drawn) [Example 103, Pyrazolo[1,5-alpha]pyrimidine-3-carboxylic acid [5-chloro-2-(3-hydroxy-cyclohexyloxy)-phenyl]-amide] | 605
18 | COc1cc2ccccc2cc1NC(=O)c1cnn2cccnc12 [Example 104, Pyrazolo[1,5-alpha]pyrimidine-3-carboxylic acid (3-methoxy-naphthalen-2-yl)-amide] | 613
19 | COc1cc(C(=O)NCCCO)ccc1NC(=O)c1cnn2cccnc12 [Example 105, Pyrazolo[1,5-alpha]pyrimidine-3-carboxylic acid [4-(3-hydroxy-propylcarbamoyl)-2-methoxy-phenyl]-amide] | 640
20 | O=C(Nc1cc(Cl)ccc1N1CCC(CO)C1)c1cnn2cccnc12 (stereo not drawn) [Example 106, Pyrazolo[1,5-alpha]pyrimidine-3-carboxylic acid [5-chloro-2-(3-hydroxymethyl-pyrrolidin-1-yl)-phenyl]-amide] | 650

Row | SMILES | IC50 [nM]
21 | O=C(Nc1cc(Cl)ccc1OC(F)F)c1cnn2cccnc12 [Example 107, Pyrazolo[1,5-alpha]pyrimidine-3-carboxylic acid (5-chloro-2-difluoromethoxy-phenyl)-amide] | 717
22 | CN(C)c1ccc(Cl)cc1NC(=O)c1cnn2cccnc12 [Example 108, Pyrazolo[1,5-alpha]pyrimidine-3-carboxylic acid (5-chloro-2-dimethylamino-phenyl)-amide] | 739
23 | NC1CCN(c2ccc(Cl)cc2NC(=O)c2cnn3cccnc23)C1 (stereo not drawn) [Example 109, Pyrazolo[1,5-alpha]pyrimidine-3-carboxylic acid [2-(3-amino-pyrrolidin-1-yl)-5-chloro-phenyl]-amide] | 766
24 | COc1cc2cc[nH]c2cc1NC(=O)c1cnn2cccnc12 [Example 110, Pyrazolo[1,5-alpha]pyrimidine-3-carboxylic acid (5-methoxy-1H-indol-6-yl)-amide] | 787
25 | CSc1ccc(Cl)cc1NC(=O)c1cnn2cccnc12 [Example 111, Pyrazolo[1,5-alpha]pyrimidine-3-carboxylic acid (5-chloro-2-methylsulfanyl-phenyl)-amide] | 798
26 | O=C(Nc1cc(Cl)ccc1C1CCCCC1)c1cnn2cccnc12 [Example 112, Pyrazolo[1,5-alpha]pyrimidine-3-carboxylic acid (5-chloro-2-cyclohexyl-phenyl)-amide] | 799
27 | COc1cc(C(=O)NCCCO)ccc1NC(=O)c1csc2cncnc12 [Example 113, Thieno[3,2-d]pyrimidine-7-carboxylic acid [4-(3-hydroxy-propylcarbamoyl)-2-methoxy-phenyl]-amide] | 833
28 | O=C(Nc1cccc(NCCO)c1N1CCCCC1)c1cnn2cccnc12 [Example 114, Pyrazolo[1,{tildeover (5)}alpha] pyrimidine-3-carboxylic acid [3-(2-hydroxy-ethylamino)-2-piperidin-1-yl-phenyl]-amide] | 1030
29 | Cc1ncoc1COc1ccc(Cl)cc1NC(=O)c1csc2cncnc12 [Example 115, Thieno[3,2-d]pyrimidine-7-carboxylic acid [5-chloro-2-(4-methyl-oxazol-5-ylmethoxy)-phenyl]-amide] | 1050
30 | O=C(Nc1ccccc1-c1ccccc1)c1cnn2cccnc12 [Example 116, Pyrazolo[1,5-alpha]pyrimidine-3-carboxylic acid biphenyl-2-ylamide] | 1220
31 | CC(C)(CCO)Oc1ccc(Cl)cc1NC(=O)c1csc2cncnc12 [Example 117, Thieno[3,2-d]pyrimidine-7-carboxylic acid [5-chloro-2-(3-hydroxy-1,1-dimethyl-propoxy)-phenyl]-amide] | 1460
32 | NC1CCC(Oc2ccc(Cl)cc2NC(=O)c2csc3cncnc23)CC1 (stereo not drawn) [Example 118, Thieno[3,2-d]pyrimidine-7-carboxylic acid [2-(4-amino-cyclohexyloxy)-5-chloro-phenyl]-amide] | 1470
33 | O=C(Nc1cc(Cl)ccc1N1CCCCCC1)c1cnn2cccnc12 [Example 119, Pyrazolo[1,5-alpha]pyrimidine-3-carboxylic acid (2-azepan 1-yl-5-chloro-phenyl)-amide] | 1500
34 | O=C(Nc1cc(Cl)ccc1OC1CCC(O)C1)c1csc2cncnc12 (stereo not drawn) [Example 120, Thieno[3,2-d]pyrimidine-7-carboxylic acid [5-chloro-2-(3-hydroxy-cyclopentyloxy)-phenyl]-amide] | 1520
35 | Cc1ncoc1COc1ccc(Cl)cc1NC(=O)c1cnn2cccnc12 [Example 121, Pyrazolo[1,5-alpha]pyrimidine-3-carboxylic acid [5-chloro-2-(4-methyl-oxazol-5-ylmethoxy)-phenyl]-amide] | 1550
36 | COc1cc(C(=O)NCCO)ccc1NC(=O)c1csc2cncnc12 [Example 122, Thieno[3,2-d]pyrimidine-7-carboxylic acid [4-(2-hydroxy-ethylcarbamoyl)-2-methoxy-phenyl]-amide] | 1620
37 | COc1ccc(Cl)cc1NC(=O)c1cnn2cccnc12 [Example 123, Pyrazolo[1,5-alpha]pyrimidine-3-carboxylic acid (5-chloro-2-methoxy-phenyl)-amide] | 1630
38 | COCCOc1ccc(Cl)cc1NC(=O)c1cnn2cccnc12 [Example 124, Pyrazolo[1,5-alpha]pyrimidine-3-carboxylic acid [5-chloro-2-(2-methoxy-ethoxy)-phenyl]-amide] | 1710
39 | O=C(Nc1cc(Cl)ccc1-c1cccc(O)c1)c1cnn2cccnc12 [Example 125, Pyrazolo[1,5-alpha]pyrimidine-3-carboxylic acid (4-chloro-3′-hydroxy-biphenyl-2-yl)-amide] | 2050
